The record followed here is US10301348B2, “Compounds for use in prevention and treatment of neurodegenerative diseases and pain” (Academia Sinica, priority 2013, dated 2019).

Entries after “also recorded” stand apart in the source; their conditions may differ.

Series [1] addresses T1, adenosine transporter (ENT1) (Cavia porcellus, UniProt H0V4R7).
T1 sequence (H0V4R7 1-461): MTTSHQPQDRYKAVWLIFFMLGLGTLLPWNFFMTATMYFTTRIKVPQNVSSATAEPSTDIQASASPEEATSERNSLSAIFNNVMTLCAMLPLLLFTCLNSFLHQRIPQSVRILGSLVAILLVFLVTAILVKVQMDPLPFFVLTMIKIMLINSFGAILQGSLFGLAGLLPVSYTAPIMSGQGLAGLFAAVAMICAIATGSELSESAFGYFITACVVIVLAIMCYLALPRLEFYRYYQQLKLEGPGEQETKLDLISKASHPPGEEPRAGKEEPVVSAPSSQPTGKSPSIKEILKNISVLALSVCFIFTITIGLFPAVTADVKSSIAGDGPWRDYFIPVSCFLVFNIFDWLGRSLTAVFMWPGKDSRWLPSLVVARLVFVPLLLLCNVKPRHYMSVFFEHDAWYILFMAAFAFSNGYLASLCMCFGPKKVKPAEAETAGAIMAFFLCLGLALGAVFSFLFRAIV
Briefly: Adenosine transporter (ENT1) radioligand binding assay (3H-NBTI).
Procedure: (§1) Binding of the indicated compounds to A2A adenosine receptor (A2AR) and an adenosine transporter (ENT1) was characterized using standard binding protocols.
(§2) Radioligand binding assays. Radioligand binding assays were performed by MDS Pharma Services Taiwan (Taipei, Taiwan) using standard binding protocols. For A2AR binding assays, membrane proteins collected from HEK293 cells overexpressing human A2AR were incubated in the reaction buffer [50 mM Tris-HCl (pH 7.4), 10 mM MgCl2, 1 mM EDTA, and 2 U/mL adenosine deaminase] containing ^3H-CGS21680 (50 nM) for 90 min at 25° C. Nonspecific binding was assessed in the presence of 50 μM adenosine-5′-N-ethylcarboxamide. […] Binding assays for adenosine transporters were conducted as described earlier. Membrane fractions collected from the cerebral cortex of Duncan Hartley-derived guinea pigs were incubated with ^3H-labeled 6-[(4-nitrobenzyl)thio]-9-β-D-ribofuranosylpurine (NBTI, 0.5 nM) for 30 min at 25° C. in the incubation buffer containing 50 mM Tris-HCl (pH 7.4). […] Reactions were terminated by filtration over GF/B glass fibers and washing with the reaction buffer.

Series [2] has as its target human A2AR (Homo sapiens, UniProt P29274). In words: A2AR radioligand binding assay (3H-CGS21680).
Procedure: as §1, §2
Series [3] concerns PC12 cells. Briefly: Serum deprivation-induced cell death, MTT assay. The format is cell-based, Rat. The note with it: serum-deprived PC12 cells, 24 h. As for the experimental part: Serum-deprived PC12 cells were treated with or without the indicated reagent(s) for 24 h. Cell viability was expressed as a percentage of the results from MTT assays compared to the mean of a serum-containing control group. Data points represent the mean±SEM (n=3˜6).
Rat PC12 cells purchased from American Type Culture Collection (ATCC; Manassas, Va., USA) were maintained in DMEM supplemented with 10% horse serum and 5% FBS and incubated in a CO2 incubator (5%) at 37° C. LIPOFECTAMINE™ 2000 (Invitrogen) was used as a vehicle to transfer plasmids into cells according to the manufacture's protocol. Plasmids were kindly provided by Dr. Pulst (Department of Neurology, University of Utah, USA). Normally, 5 μg of DNA combined with 5 μl of LIPOFECTAMINE™ 2000 was applied to each well of 6-well plates. The plating number was (1˜1.5)×10^6 cells/well. After transfections for 6 h, cells were treated with reagents for another 24 h. Images were taken with a Zeiss Axiovert 200M inverted fluorescence microscope (Göttingen, Germany).
MTT assay. Survival was assessed by 3-(4,5-dimethylthiazol-2-yl)-2,5-diphenyl tetrazolium bromide (MTT) metabolism assay. […] After discarding the medium, DMSO was applied to the well to dissolve formazan crystals, and the absorbances at 570 and 630 nm in each well were measured on a micro-enzyme-linked immunosorbent assay (ELISA) reader.
(Formazan colour is commonly taken as a measure of viable cells.)

Series [4] relates to SCA3 transgenic mice expressing ataxin-3-Q79. In words: SCA3 transgenic mice: rotarod test and NeuN staining of pontine nuclei. The note with it: 4-month-old SCA3 transgenic mice. On the technique in general: The rotarod test checks motor coordination on a turning rod.
Procedure: (A) SCA3 transgenic mice were given drinking water containing vehicle (0.2% DMSO) or T1-11 (0.1 mg/ml) beginning at 4 weeks-old.
Behavioral test. Balance and coordination functions of mice were determined by performing rotarod test. Mice were placed on the moving drum of a rotarod apparatus (Accelerating Model, Ugo Basile Biological Research Apparatus), which was then accelerated until mouse fell from the drum onto a plate to stop the timer. Latency to fall was measured in four daily trials over the course of 4 days.
Immunohistochemical staining. Wild-type or SCA3 transgenic mice were anesthetized and perfused transcardially with 4% paraformaldehyde in PBS. Brain was equilibrated in Tissue-Tek embedding medium and frozen in liquid nitrogen. Coronal sections (20 μm) prepared by cryostat sectioning were permeabilized in 0.1% Triton X-100, and incubated at 4° C. for 48 hours with diluted anti-NeuN monoclonal antiserum (Chemicon). Subsequently, sections were washed and incubated with biotinylated horse anti-mouse IgG followed by incubation with avidin-biotin-horseradish peroxidase complex. The sections were then washed and developed in a diaminobenzidine solution. NeuN-positive neurons were visualized and counted by a Leica DM2500 microscope equipped with a Retiga-2000R CCD camera (QImaging) and a 3-axis computer-controlled MAC 600 motorized stage (Ludl Electronics) with the aid of StereoInvestigator software (MBF Bioscience). Each analysis included the processing of 15 brain sections per mouse.
The test system of series [5] is TDP-43 transgenic mice. In words: TDP-43 transgenic mice (ALS): rotarod and grip strength. Type of series: in vivo.
The subject of series [6] is R6/2 mice. In words: Transgenic mouse model (R6/2) of Huntington's disease: rotarod and lifespan. The format is in vivo. As for the experimental part:
FIGS. 3A-B show the effect of JMF3464 on motor deficits and lifespan. […] Rotarod performance (A) and lifespan (B) of these mice were assessed. * p<0.05. *** p<0.005.
As the A2AR and ENT1 are located in the striatum and have been implicated in striatal function, we hypothesized that chronic treatment with JMF3464 would modulate the progression of HD. We tested the effect of JMF3464 in a transgenic mouse model (R6/2) of HD in which A2AR agonists have beneficial effects.
Animals and drug administration. Male R6/2 mice (Mangiarini et al., 1996 Cell. 87:493-506) and littermate controls were originally obtained from Jackson Laboratories (Bar Harbor, Me., USA), and mated to female control mice (B6CBAFI/J). Offspring were identified by a polymerase chain reaction (PCR) genotyping technique of genomic DNA extracted from tail tissues using primers located in the transgene (5′-[…]-3′; SEQ ID NO: 1, and 5′-GGCTGAGGAAGCTGAGGAG-3′; SEQ ID NO: 2) to ensure that the number of CAG repeats remained approximately 150. […] Body weights of mice were recorded once daily. […]
Rotarod performance. Motor coordination was assessed using a rotarod apparatus (UGO BASILE, Comerio, Italy) at a constant speed (12 rpm) over a period of 2 min (Carter et al., 1999 J Neurosci. 19:3248-3257). […] Latency to fall was recorded automatically. […]

The subject of series [7] is mice treated with intermittent cold stress. Briefly: Intermittent cold stress model of fibromyalgia. The format is in vivo. As for the experimental part: FIGS. 10A-C show the analgesic effect of JMF3464 on a mouse model of fibromyalgia. […] Open arrows indicate the time mice received acid injection. Black arrows indicate the time mice received T1-11 (p.o.). […] The analgesic effect of JMF3464 is dose-dependent. The effective dose started from 100 μg/kg (i.p.).
Intermittent cold stress model. The fibromyalgia model was developed by Ueda's group, in which mice were treated with intermittent cold stress for 2 days (Nishiyori and Ueda, 2008 Mol Pain. 4:52). Mice treated with intermittent cold stress developed long-lasting (>2 weeks) mechanical and thermal hyperalgesia. Analgesic effects of JMF3464 (i.p. or p.o.) were tested in these mice 5 days after intermittent cold stress. Mechanical hyperalgesia was assayed by testing the withdrawal response of mouse hindpaws to 0.2-mN von Frey filament stimulation.

In series [8] the test system is NSC34 cells. In words: TDP-43 mislocalization caused by AICAR (AMPK activation), immunostaining. Type of series: cell-based. To be noted: 30 μM, 1 h pretreatment then AICAR 1 mM for 24 hrs. As for the experimental part:
Cells were pretreated with JMF3464 (30 μM) for one hour, and then treated with AICAR (1 mM, Al) in the presence of JMF3464 for additional 24 hrs. TDP-43 (red) localization was analysed by immunostaining. The locations of nuclei were marked by Hochest (blue).
Cell culture and transfection. The motor neuron cell line (NSC34) was a generous gift from Dr. Neil Cashman (Brain Research Centre, The University of British Columbia, Canada), and cultured in a high-glucose Dulbecco's modified Eagle's medium (DMEM) containing 10% fetal calf serum (FCS), 2 mM L-glutamine, and 1% penicillin/streptomycin (Invitrogen GibcoBRL, Carlsbad, Calif., USA) at 37° C. under 5% CO2.

The nature of series [9]: Oral bioavailability / pharmacokinetic study in ICR mice. The format is in vivo. The method, then: To measure oral bioavailability of a test compound, blood samples were collected from male ICR mice (6 weeks old; 20-25 g) after oral (10 mg/kg) or intravenous (1 mg/kg) administrations of the test compound. The blood samples collected at the indicated periods were extracted with methanol containing 0.1% formic acid, and then 10 μL of each extracted sample were injected to UPLC-MSMS for quantitation.
Pharmacokinetic Study. The compound was administered as aqueous solutions in normal saline. Male ICR mice were purchased from BioLASCO Taiwan Co., Ltd. To measure oral bioavailability of test compounds (T1-11 and JMF3464), blood samples were collected from male ICR mice (6 weeks old; […]) after oral (10 mg/kg) or intravenous (1 mg/kg) administrations of test compounds. For T1-11, blood samples were collected at 2, 10, 30, 60, 120, 360 minutes after intravenous administration and at 15, 30, 45, 60, 120, 360 minutes after oral administration. For JMF3464, the blood samples were collected at 2, 10, 30, 60, 120, 240, 360, 480 minutes after intravenous administration and at 15, 30, 60, 90, 120, 240, 360, 480 minutes after oral administration. The blood samples were extracted by methanol with 0.1% formic acid, and then 10 μL of the extracted samples were injected to UPLC-MSMS to for quantitation.
The pharmacokinetic parameters were obtained using a pharmacokinetic program WinNonlin, fitting data to a noncompartmental model. […] The total plasma clearance (CL) was calculated as dose/AUCi.v.. The oral bioavailability (F) of the test compound by oral administration was calculated from the AUC0-∞ of the oral dose divided by the AUC0-∞ of the i.v. dose.

Where [10] appears, read: 3.7, 1.25, 0.5 and 0.1 mg/kg/day, subcutaneous osmotic pump, vs control mice.

human A2AR, sequence (P29274 whole entry): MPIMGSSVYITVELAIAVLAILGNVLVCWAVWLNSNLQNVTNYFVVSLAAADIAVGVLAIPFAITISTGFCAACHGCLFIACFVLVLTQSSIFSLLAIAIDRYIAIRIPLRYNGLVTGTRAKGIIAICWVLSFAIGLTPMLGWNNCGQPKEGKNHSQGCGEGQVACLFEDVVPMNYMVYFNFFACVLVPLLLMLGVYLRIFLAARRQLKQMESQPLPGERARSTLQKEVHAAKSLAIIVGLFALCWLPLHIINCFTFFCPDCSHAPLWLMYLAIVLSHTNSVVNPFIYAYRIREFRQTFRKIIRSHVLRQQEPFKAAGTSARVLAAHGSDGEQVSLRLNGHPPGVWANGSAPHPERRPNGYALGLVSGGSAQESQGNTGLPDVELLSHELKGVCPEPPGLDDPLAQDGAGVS

As for `OC[C@H]1O[C@@H](n2cnc3c(NCc4ccc(Cl)s4)ncnc32)[C@H](O)[C@@H]1O` [JMF3818, N^6-[(5-Chlorothien-2-yl)methyl]adenosine], the inhibition at 10 µM in series [1] (read-out: inhibition of adenosine transporter (ENT1)) was 96%; in series [2] (read-out: inhibition of A2A receptor) it was 54%. Also, the “apoptosis of PC12 cells caused by serum withdrawal” value in series [3] is “inhibited the apoptosis of PC12 cells caused by serum withdrawal”.

As to `OC[C@H]1O[C@@H](n2cnc3c(NCCc4c[nH]c5ccccc45)ncnc32)[C@H](O)[C@@H]1O` [JMF1907, N^6-[2-(indol-3-yl)ethyl]adenosine], the inhibitory constant (Ki) in series [1] was 3470 nM; in [2] it was 4390 nM. For the same compound, the “pontine neuronal death (NeuN staining)” value in series [4] (daily oral 1 mg per day) was “significantly prevented neuronal death in the pontine nuclei; also recorded: significantly alleviated pontine neuronal death”. Besides, the rotarod performance result in [4] (daily oral 1 mg per day) is “significantly improved rotarod performance”; in [5] (setting [10]) it was “statistical significance was reached at all points for 1.5 & 0.5 mg/kg, from 12-21 wk for 0.1 mg/kg, and 10-12 wk for 3.7 mg/kg; also recorded: performed significantly better”. In series [5] (setting [10]), the grip strength result was “statistical significance was reached at all points for all tested doses; also recorded: performed significantly better”. Also, the “dose showing the greatest benefit” value in series [5] (rotarod and grip strength) is recorded as 1.25 mg/kg.

As to `OC[C@H]1O[C@@H](n2cnc3c(NCc4ccc(Br)s4)ncnc32)[C@H](O)[C@@H]1O` [JMF3464, N^6-[(5-bromothien-2-yl)methyl]adenosine], the inhibition constant Ki came out at 50 nM in series [1] and 1700 nM in series [2]. Moreover, the “rotarod performance / ataxia” value in [4] (daily 0.3 mg per day) was “greatly improved the rotarod performance; also recorded: alleviated the ataxia”. In addition, the “pontine neuronal death (NeuN staining)” value in [4] (daily oral 0.3 mg per day) is recorded as “significantly ameliorated neuronal death in the pontine nuclei; also recorded: alleviated”. Also, the “motor coordination assessed by rotarod performance” value in series [6] (R6/2 mice from 7 weeks old, 0.11 mg/kg/day, subcutaneous osmotic minipump, 6 weeks) was “counteracted the progressive deterioration in motor coordination”. Moreover, in [6] (R6/2 mice, sustained (long term) treatment), the lifespan entry is “improved”. The “effective dose (start)” value in series [7] (i.p.) was no less than 0.1 mg/kg. For the same compound, in series [7] (i.p., dose-dependent, von Frey mechanical hyperalgesia), the analgesic effect result is listed as “showed an analgesic effect”. Moreover, in [7] (p.o. 1 mg/kg), the “analgesic effect, oral administration” value is reported as “showed an analgesic effect”. Further, the TDP-43 mislocalization entry in series [8] was “reduced TDP-43 mislocalization; also recorded: normalized TDP-43 mislocalization”. Moreover, the “oral absorption relative to T1-11” value in [9] (JMF3464 vs T1-11) is “more than 6 fold”. The compound further registered a bioavailability in series [9] (male, mouse, plasma, oral 10 mg/kg vs intravenous 1 mg/kg) of 17.4%.

One may read the inhibition as the percentage by which the read-out fell short of the control. One may read the Ki as the equilibrium dissociation constant of an inhibitor or competing ligand from its target. Read a high Ki as a looser hold on the target. Broadly, the bioavailability is dose-corrected exposure relative to a reference, in per cent.
